# Values of other authors as cited in patent US20200352905A1, “6-(2,4-DICHLOROPHENYL)-5-[4-[(3S)-1-(3-FLUOROPROPYL)PYRROLIDIN-3-YL]OXYPHENYL]-8,9-DIHYDRO-7H-BENZO[7]ANNULENE-2-CARBOXYLIC ACID FOR USE IN METASTATIC OR ADVANCED BREAST CANCER PATIENTS” (SANOFI, priority 2019, published 2020).
# Read-outs that look alike come from different tables or passages of the source.
# How the values were obtained:
# CYP3A [1] = conditions: cited from earlier work
# CYP3A [2] = conditions: cited from earlier work; remark: listed apart in the source
# CYP2C8 = conditions: cited from earlier work
# advanced breast cancer = conditions: prior CDK4/6, mTOR, fulvestrant not allowed, cited from earlier work
# [3] = moderate CYP3A inhibitors, victim midazolam (oral)
# [4] = strong CYP3A inhibitors, victim midazolam (oral)
# [5] = victim Sildenafil, 62.5-125 mg BID 8 weeks
# [6] = victim Midazolam, 1000 mg QD (14 days)
# [7] = victim Midazolam, 1000 mg BID (14 days)
# [8] = victim Triazolam, 200-400 mg QD 28 days
# [9] = victim Nifedipine, 500 mg 4 times daily 5 days
# [10] = victim Verapamil, 100 mg QD 21 days
# [11] = victim Midazolam, 140 mg QD (10 days)
# [12] = victim Indinavir, 500 mg TID 14 days
# [13] = EFECT trial 2003-2005, fulvestrant single agent arm, n=270, setting 2L+
# [14] = PALOMA-3 trial 2013-2014, fulvestrant single agent arm, n=138, setting 2L+
# [15] = SANDPIPER trial 2015-2017, fulvestrant single agent arm, n=134, setting 2L+
# [16] = SoFEA trial 2004-2010, fulvestrant single agent arm, n=178, setting 2L+
smiles,measurement,setting,value
COCCc1ccc(Cl)c(CN(C(=O)[C@H]2CNCC[C@@H]2c2ccc(OCCOc3c(Cl)cc(C)cc3Cl)nc2)C2CC2)c1 [ACT-178882],AUC Ratio,CYP3A [1]; [3],2.19
CC(C)c1cc(C(C)C)c(CC(=O)NS(=O)(=O)Oc2c(C(C)C)cccc2C(C)C)c(C(C)C)c1 [Avasimibe],% of AUC decrease,"CYP3A [2]; victim Midazolam, 750 mg/day (7 days)",93.5%
CC(C)(C)NC(=O)N[C@H](C(=O)N1C[C@H]2[C@@H]([C@H]1C(=O)NC(CC1CCC1)C(=O)C(N)=O)C2(C)C)C(C)(C)C (stereo partly drawn) [Boceprevir],AUC Ratio,CYP3A [1]; [4],5.05
COc1ccccc1Oc1c(NS(=O)(=O)c2ccc(C(C)(C)C)cc2)nc(-c2ncccn2)nc1OCCO [Bosentan],% of AUC decrease,CYP3A [2]; [5],69%
same,% oral CL increase,CYP3A [2]; [5],239.8%
CC[C@H]1OC(=O)[C@H](C)[C@@H](O[C@H]2C[C@@](C)(OC)[C@@H](O)[C@H](C)O2)[C@H](C)[C@@H](O[C@@H]2O[C@H](C)C[C@H](N(C)C)[C@H]2O)[C@](C)(OC)C[C@@H](C)C(=O)[C@H](C)[C@@H](O)[C@]1(C)O [Clarithromycin],AUC Ratio,CYP3A [1]; [4],8.39
Cc1nc2c([nH]1)-c1ccccc1N(C(=O)c1ccc(NC(=O)c3ccccc3-c3ccccc3)cc1)CC2 [Conivaptan],AUC Ratio,CYP3A [1]; [4],5.76
CCCCc1oc2ccc(NS(C)(=O)=O)cc2c1C(=O)c1ccc(OCCCN(CCCC)CCCC)cc1 [Dronedarone],AUC Ratio,"CYP3A [1]; moderate CYP3A inhibitors, victim simvastatin",3.66
O=C1Nc2ccc(Cl)cc2[C@@](C#CC2CC2)(C(F)(F)F)O1 [Efavirenz],% of AUC decrease,"CYP3A [2]; victim Simvastatin acid, 600 mg QD 28 days",60.4%
CNC(=O)c1ccc(N2C(=S)N(c3ccc(C#N)c(C(F)(F)F)c3)C(=O)C2(C)C)cc1F [Enzalutamide],% of AUC decrease,"CYP3A [2]; victim Midazolam, 160 mg QD (85 ± 3 days)",85.9%
Cc1cc(C#N)cc(C)c1Oc1nc(Nc2ccc(C#N)cc2)nc(N)c1Br [Etravirine],% of AUC decrease,"CYP3A [2]; victim Sildenafil, 800 mg BID 13.5 days",56.7%
OC(Cn1cncn1)(Cn1cncn1)c1ccc(F)cc1F [Fluconazole],AUC Ratio,CYP3A [1]; [3],4.93
O=c1c(-c2ccc(O)cc2)coc2cc(O)cc(O)c12 [Genistein],% of AUC decrease,CYP3A [2]; [6],13.7%
same,% oral CL increase,CYP3A [2]; [6],136.9%
CC[C@H](Nc1ncnc2[nH]cnc12)c1nc2cccc(F)c2c(=O)n1-c1ccccc1 [Idelalisib],AUC Ratio,CYP3A [1]; [4],5.15
CCC(C)n1ncn(-c2ccc(N3CCN(c4ccc(OCC5COC(Cn6cncn6)(c6ccc(Cl)cc6Cl)O5)cc4)CC3)cc2)c1=O (stereo not drawn) [Itraconazole],AUC Ratio,CYP3A [1]; [4],10.80
CC(=O)N1CCN(c2ccc(OCC3COC(Cn4ccnc4)(c4ccc(Cl)cc4Cl)O3)cc2)CC1 (stereo not drawn) [Ketoconazole],AUC Ratio,"CYP3A [1]; in vivo, po",15.90
CN[C@@H](C)C(=O)N[C@H](C(=O)N1CCC[C@H]1c1nc(C(=O)c2ccc(F)cc2)cs1)C1CCCCC1 [LCL 161],AUC Ratio,CYP3A [1]; [4],8.80
CCc1nn(CCO)c(CC)c1Oc1cc(C#N)cc(C#N)c1 [Lersivirine],% of AUC decrease,CYP3A [2]; [7],51.4%
same,% oral CL increase,CYP3A [2]; [7],105.5%
COCC(=O)O[C@]1(CCN(C)CCCc2nc3ccccc3[nH]2)CCc2cc(F)ccc2[C@@H]1C(C)C [Mibefradil],AUC Ratio,CYP3A [1]; [4],8.86
Clc1ccc(C(c2ccccc2Cl)C(Cl)Cl)cc1 (stereo not drawn) [Mitotane],% of AUC decrease,"CYP3A [2]; victim Midazolam, Maximum of 3.5 g TID (chronic therapy)",94.5%
NC(=O)C[S+]([O-])C(c1ccccc1)c1ccccc1 (stereo not drawn) [Modafinil],% of AUC decrease,CYP3A [2]; [8],57.6%
same,% oral CL increase,CYP3A [2]; [8],35.7%
CCOc1ccc2ccccc2c1C(=O)N[C@@H]1C(=O)N2[C@@H]1SC(C)(C)[C@@H]2C(=O)O [Naficillin],% of AUC decrease,CYP3A [2]; [9],62.6%
same,% oral CL increase,CYP3A [2]; [9],145.1%
CCc1nn(CCCN2CCN(c3cccc(Cl)c3)CC2)c(=O)n1CCOc1ccccc1 [Nefazodone],AUC Ratio,CYP3A [1]; [4],5.44
Cc1c(O)cccc1C(=O)N[C@@H](CSc1ccccc1)[C@H](O)CN1C[C@H]2CCCC[C@H]2C[C@H]1C(=O)NC(C)(C)C [Nelfinavir],AUC Ratio,CYP3A [1]; [4],5.29
CCC1(c2ccccc2)C(=O)NC(=O)NC1=O [Phenobarbital],% of AUC decrease,CYP3A [2]; [10],76.6%
same,% oral CL increase,CYP3A [2]; [10],400.9%
O=C1NC(=O)C(c2ccccc2)(c2ccccc2)N1 [Phenytoin],% of AUC decrease,"CYP3A [2]; victim Nisoldipine, 200-450 mg/day (chronic treatment)",89.5%
CC[C@@H]([C@H](C)O)n1ncn(-c2ccc(N3CCN(c4ccc(OC[C@@H]5CO[C@@](Cn6cncn6)(c6ccc(F)cc6F)C5)cc4)CC3)cc2)c1=O [Posaconazole],AUC Ratio,CYP3A [1]; [4],6.23
CO[C@H]1/C=C/O[C@@]2(C)Oc3c(C)c(O)c4c(c3C2=O)C2=NC3(CCN(CC(C)C)CC3)NC2=C(NC(=O)/C(C)=C\C=C\[C@H](C)[C@H](O)[C@@H](C)[C@@H](O)[C@@H](C)[C@H](OC(C)=O)[C@@H]1C)C4=O [Rifabutin],% oral CL increase,"CYP3A [2]; victim Delavirdine, 300 mg QD 14 days",458.0%
CO[C@H]1/C=C/O[C@@]2(C)Oc3c(C)c(O)c4c(O)c(c(/C=N/N5CCN(C)CC5)c(O)c4c3C2=O)NC(=O)/C(C)=C\C=C\[C@H](C)[C@H](O)[C@@H](C)[C@@H](O)[C@@H](C)[C@H](OC(C)=O)[C@@H]1C [Rifampin],Max % of AUC decrease or CL increase,"CYP2C8; substrate pioglitazone, 600 mg QD (6 days)",53.8%
same,Max % of AUC decrease or CL increase,"CYP2C8; substrate repaglinide, 600 mg QD (7 days)",79.6%
same,Max % of AUC decrease or CL increase,"CYP2C8; substrate rosiglitazone, 600 mg QD (6 days)",66.4%
CC(C)(C)NC(=O)[C@@H]1C[C@@H]2CCCC[C@@H]2CN1C[C@@H](O)[C@H](Cc1ccccc1)NC(=O)[C@H](CC(N)=O)NC(=O)c1ccc2ccccc2n1 [Saquinavir],AUC Ratio,CYP3A [1]; [4],5.18
CC(C)[C@H](O)C(=O)N[C@@H](C)C(=O)N[C@@H]1C(=O)N(C)CCc2ccccc21 [Semagacestat],% of AUC decrease,CYP3A [2]; [11],76.4%
same,% oral CL increase,CYP3A [2]; [11],324.6%
COc1ccc2c(c1)N(C(=O)OC(C)C)[C@@H](CSC)C(=S)N2 [Talviraline],% of AUC decrease,CYP3A [2]; [12],61.7%
same,% oral CL increase,CYP3A [2]; [12],181.2%
CCC[C@H](NC(=O)[C@@H]1[C@H]2CCC[C@H]2CN1C(=O)[C@@H](NC(=O)[C@@H](NC(=O)c1cnccn1)C1CCCCC1)C(C)(C)C)C(=O)C(=O)NC1CC1 [Telaprevir],AUC Ratio,CYP3A [1]; [4],13.5
CC[C@H]1OC(=O)[C@H](C)C(=O)[C@H](C)[C@@H](O[C@@H]2O[C@H](C)C[C@H](N(C)C)[C@H]2O)[C@](C)(OC)C[C@@H](C)C(=O)[C@H](C)[C@H]2N(CCCCn3cnc(-c4cccnc4)c3)C(=O)O[C@]12C [Telithromycin],AUC Ratio,CYP3A [1]; [4],6.2
CC(C)CN(C[C@@H](O)[C@H](Cc1ccccc1)NC(=O)O[C@H]1CCOC1)S(=O)(=O)c1ccc(N)cc1 [amprenavir],AUC Ratio,CYP3A [1]; in vivo,2.93
C[C@@H](O[C@H]1OCCN(Cc2n[nH]c(=O)[nH]2)[C@H]1c1ccc(F)cc1)c1cc(C(F)(F)F)cc(C(F)(F)F)c1 [aprepitant],AUC Ratio,CYP3A [1]; [3],3.29
COC(=O)N[C@H](C(=O)N[C@@H](Cc1ccccc1)[C@@H](O)CN(Cc1ccc(-c2ccccn2)cc1)NC(=O)[C@@H](NC(=O)OC)C(C)(C)C)C(C)(C)C [atazanavir],AUC Ratio,"CYP3A [1]; moderate CYP3A inhibitors, victim maraviroc",3.57
CC(=O)N1CCN([C@H]2CCN(C(=O)N(C)[C@H](C)c3cc(C(F)(F)F)cc(C(F)(F)F)c3)[C@@H](c3ccc(F)cc3C)C2)CC1 [casopitant],AUC Ratio,CYP3A [1]; [3],3.13
C[C@]12CC[C@@H]3c4ccc(O)cc4C[C@@H](CCCCCCCCC[S+]([O-])CCCC(F)(F)C(F)(F)F)[C@H]3[C@@H]1CC[C@@H]2O (stereo partly drawn) [fulvestrant],CBR,advanced breast cancer; [13],32.2%
same,ORR,advanced breast cancer; [13],7.4%
same,CBR,advanced breast cancer; [14],36%
same,ORR,advanced breast cancer; [14],11%
same,CBR,advanced breast cancer; [15],37.3%
same,ORR,advanced breast cancer; [15],11.9%
same,CBR,advanced breast cancer; [16],31%
same,ORR,advanced breast cancer; [16],8%
C[C@@H](c1nc(-c2ccc(C#N)cc2)cs1)[C@](O)(Cn1cncn1)c1cc(F)ccc1F [isavuconazole],AUC Ratio,CYP3A [1]; [3],2.03
N#Cc1ccnc(N2C(=O)CC[C@H]2C(=O)N(c2cncc(F)c2)[C@H](C(=O)NC2CC(F)(F)C2)c2ccccc2Cl)c1 [ivosidenib],Max % of AUC decrease or CL increase,"CYP2C8; substrate repaglinide, 1200 mg QD (19 days), PBPK",59.0 (PBPK) %
Cc1ccccc1-c1cc(N2CCN(C)CC2)ncc1N(C)C(=O)C(C)(C)c1cc(C(F)(F)F)cc(C(F)(F)F)c1 [netupitant],AUC Ratio,CYP3A [1]; [3],2.44
Cc1cn(-c2cc(NC(=O)c3ccc(C)c(Nc4nccc(-c5cccnc5)n4)c3)cc(C(F)(F)F)c2)cn1 [nilotinib],AUC Ratio,CYP3A [1]; [3],2.40
CCC1C(C)=NN=C(c2ccc(OC)c(OC)c2)c2cc(OC)c(OC)cc21 (stereo not drawn) [tofisopam],AUC Ratio,CYP3A [1]; [3],2.36
